Assay results taken from US7901893B2, “NPC1L1 (NPC3) and methods of identifying ligands thereof” (Merck Sharp & Dohme Corp., priority 2004, dated 2011).

Tests used:
[1] = test system: membrane preparations from cells expressing NPC1L1; experiment: Preliminary binding studies with HEK-293 membrane preparations
Method: Transient expression of NPC1L1. Plasmid pCR3.1 expressing rat NPC1L1 (Genbank AY437867) or human NPC1L1 (Genbank AY437865) were prepared using standard molecular biology protocols. HEK-293 cells (ATCC) were seeded at 10×10^6 cells per T-225 flask (Corning) in DMEM containing 10% fetal calf serum, 4.5 g/L D-glucose and L-glutamine, 18 hours prior to transfection. They were transiently transfected with 25 μg of DNA using Fugene transfection reagent (Roche Biochemical) at a ratio of 6:1 Fugene:DNA. Following transfection, the cells were incubated at 37° C. and 5% CO2 for 48 hours, and then harvested using PBS based cell dissociation buffer (Gibco), pelleted at 500×g, snap frozen on dry ice, and stored at −80° C.
Membrane preparation from HEK-293 cells. Membranes were prepared by resuspending the frozen cell pellets in ten volumes of 20 mM HEPES/Tris buffer at pH 7.40 containing 8% sucrose, and sonicating the suspensions with a probe sonicator on ice until most of the cells were lysed. […]
Cell lysates from HEK-293 cells expressing NPC1L1 (Lanes 1 and 3 of Panel 1 FIG. 13) and wild-type cells (Lanes 2 and 4 of Panel 1 FIG. 13) were analyzed by gel electrophoresis and Western blot with an anti-NPC1L1 antibody A1801. […]

cholesterol absorption = conditions: rat; cited from earlier work
[2] = test system: human, mouse or rat NPC1L1-CHO overexpressing membranes; experiment: SPA assay; assay type: binding; conditions: 0.1 nM ligand
Method: For each well of a 96 well plate, a reaction mixture of 10 μg human, mouse or rat NPC1L1-CHO overexpressing membranes (Biosignal) and 200 μg/well YSi-WGA-SPA beads (Amersham) in 100 μl is prepared in NPC1L1 assay buffer (25 mM HEPES, pH 7.8, 2 mM CaCl2, 1 mM MgCl2, 125 mM NaCl, 0.1% BSA). A 0.4 nM stock of ligand-[^125I]-ezetimibe- is prepared in the NPC1L1 assay buffer. The above solutions are added to a 96-well assay plate as follows: 50 μl NPC1L1 assay buffer, 100 μl of reaction mixture, 50 μl of ligand stock (final ligand concentration is 0.1 nM). The assay plates are shaken for 5 minutes on a plate shaker, then incubated for 8 hours before cpm/well are determined in Microbeta Trilux counter (PerkinElmer).

mouse NPC1L1 = biological target: T1, mouse NPC1L1 (Mus musculus, UniProt Q6T3U4); experiment: Effect of ezetimibe on cholesterol uptake, mouse NPC1L1 transfected CHO cells; assay type: cell-based; conditions: EZ (10 μM), mNPC1L1(C7)
T1 construct: expressed in transfected cells; pCDNA3)
Method: The effect of ezetimibe on the ability of CHO cells stably transfected with mouse or rat NPC1L1 or mouse SR-B1 to take up ^3H-labeled cholesterol was evaluated in pulse-chase experiments. One cDNA clone of mouse NPC1L1 (C7) and three clones of rat NPC1L1 (C7, C17 and C21) were evaluated. The ability of CHO cells stably transfected with mouse SR-B1, mouse NPC1L1 and rat NPC1L1 to take up labeled cholesterol, in the absence of ezetimibe, was also evaluated in the pulse-chase experiments. Data generated in these experiments are set forth, below, in Tables 4 and 5. Additionally, the quantity of total cholesterol taken up by transfected and untransfected CHO cells in the presence of four different unlabeled cholesterol concentrations was also evaluated.
Starve. The maintenance media (F12 HAMS, 1% Pen/Strep, 10% FCS) was removed and the cells were rinsed with serum-free HAMS media. The serum-free media was then replaced with 1 mL “starve” media (F12 HAMS, Pen/Strep, 5% lipoprotein deficient serum (LPDS). The cells were then starved overnight.
Pre-Incubation/pre-dose. Media was removed from all plates and replaced with fresh starve media and preincubated for 30 minutes. Half of the wells received media containing ezetimibe (stock soln in EtOH; final conc.=10 μM).
^3H-Cholesterol Pulse. The following was added directly to each well: • 0.5 μCi ^3H-cholesterol (˜1.1×10^6 dpm/well) in 50 μl of a mixed bile salt micelle • 4.8 mM sodium taurocholate (2.581 mg/mL) • 0.6 mM sodium oleate (0.183 mg/mL) • 0.25 mM cholesterol (0.1 mg/mL) • Dispersed in “starve” media by ultrasonic vibration • Final media cholesterol concentration=5 μg/mL
Labeled cholesterol pulse time points were 4, 12, 24 minutes and 4 hours. Triplicate wells were prepared for each treatment.
Wash. At designated times, media was aspirated and cells were washed once with Hobbs Buffer A (50 mM Tris, 0.9% NaCl, 0.2% bovine serum albumin (BSA), pH 7.4) and once with Hobbs Buffer B (50 mM Tris, 0.9% NaCl, pH 7.4 (no BSA)) at 37° C.
A. 4, 12, 24 minute time points: Cells were digested overnight with 0.2N NaOH, 2 mL/well, room temperature. One 1.5 mL aliquot was removed from each well, neutralized & counted for radioactivity by scintillation counting.
B. 4 hour time point: The digested cells were analyzed by thin-layer chromatography to determine the content of cholesterol ester in the cells.
Extracts were spotted onto TLC plates and run for 30 minutes in 2 ml hexane:isopropanol (3:2) mobile phase for 30 minutes, followed by a second run in 1 ml hexane:isopropanol (3:2) mobile phase for 15 minutes.
C. Protein determination of cell extracts. Plates containing a sample of the cell extracts were placed on orbital shaker at 120 rpm for indicated times and then extracts are pooled into 12×75 tubes. Plates were dried and NaOH (2 ml/well) added. The protein content of the samples were then determined. Two additional 50 μl aliquots from all wells were assayed for total protein by the Pierce micro BCA method. The quantity of labeled cholesterol observed in the cells was normalized to the quantity of protein in the cells.

## O=C(O)[C@H]1O[C@@H](Oc2ccc([C@@H]3[C@@H](CC[C@H](O)c4ccc(F)cc4)C(=O)N3c3ccc(F)cc3)cc2)[C@H](O)[C@@H](O)[C@@H]1O [Compound 1, Ezetimibe glucuronide]
[1]
  binding to membrane preparations from cells expressing NPC1L1: specific binding
  binding to membranes from mock transfected cells: no specific binding

## O=C1[C@H](CC[C@H](O)c2ccc(F)cc2)[C@@H](c2ccc(O)cc2)N1c1ccc(F)cc1 [ezetimibe]
Cholesterol absorption
  potency (ED50) in vivo: 0.03 mpk
[2]
  binding to cell membranes expressing human, mouse or rat NPC1L1: binds
Mouse NPC1L1; 4 Hour Pulse
  Cholesteryl Ester, dpm ± sem: 453 ± 118 dpm
  Cholesteryl Ester, dpm/mg protein ± sem: 3057 ± 776 dpm/mg protein
  Free Cholesterol, dpm ± sem: 77516 ± 1910 dpm
  Free Cholesterol, dpm/mg protein ± sem: 523803 ± 10386 dpm/mg protein
Mouse NPC1L1; 4 Min Pulse
  Total Cholesterol, dpm ± sem: 4569 ± 222 dpm
  Total Cholesterol, dpm/mg protein ± sem: 30916 ± 1137 dpm/mg protein
Mouse NPC1L1; 12 Min Pulse
  Total Cholesterol, dpm ± sem: 6120 ± 755 dpm
  Total Cholesterol, dpm/mg protein ± sem: 41712 ± 4054 dpm/mg protein
Mouse NPC1L1; 24 Min Pulse
  Total Cholesterol, dpm ± sem: 9749 ± 482 dpm
  Total Cholesterol, dpm/mg protein ± sem: 74041 ± 3670 dpm/mg protein
